According to US8741905B2, “Compounds and methods for treating autoimmune diseases” (The Broad Institute, Inc., priority 2010, dated 2014):

How the values were obtained:
[1] = system: INS-1E cells; test: Cellular ATP levels (CellTiter-Glo) in cytokine-treated INS-1E cells; suppression of cytokine-induced beta-cell apoptosis; type: cell-based, rat; settings: INS-1E cells, cytokines IL-1β, IFN-γ, TNF-α, 48 h, CellTiter-Glo; read-out: CTG EC50 in HTS
Protocol: The compounds were analyzed for activity utilizing methods described in Chou et al. (ACS Chem. Biol. 2010 Aug. 20; 5(8):729-34).
INS-1E cells were seeded at 10,000 cells per well using a Multidrop Combi (Thermo Labsystems) in white optical 384-well plates (Corning Life Sciences). After overnight incubation, medium was removed and 50 μL of RPMI containing 1% FBS and a combination of cytokines (10 ng mL-^1 IL-1β, 50 ng mL^−1 IFN-γ, 25 ngmL^−1 TNF-α) was added to every well. Using libraries of compounds dissolved in DMSO and a CyBi-Well pin-transfer robot (CyBio Corp.), 0.1 μL of each compound was added. After 48 h, medium was removed and 20 μL of CellTiter-Glo reagent was added. Luminescence was measured after 10 min of incubation using an EnVision plate reader (PerkinElmer).
Instrument output files were processed using Pipeline Pilot (Accelrys) and input to MATLAB (The MathWorks) for data normalization. Compound performance scores relative to a distribution of mock-treated (DMSO) wells were calculated using a revised version of the scoring system underlying ChemBank. (Seiler et al., Nucleic Acids Res. 36, D351-359, 2008). The role of replicate treatments was further developed as follows: first, mock-treatment distributions were modeled using all mock-treated wells measured on a single day, regardless of their nominal replicate; second, per-compound scores weighted each in-plate background-subtracted measurement by the uncertainty in that measurement, using the method of maximum likelihood. The uncertainty in a single background-subtracted measurement was estimated using the number of mock-treated wells on the plate and, as a measure of the assay noise, the standard deviation of the per-day mock-treatment distribution. The signal, a weighted average of differences, was scaled by the noise, the standard deviation of the mock treatment distribution.
INS-1E cells were seeded at 10,000 cells/well using a Multidrop Combi (Thermo Labsystems) in white optical 384-well plates (Corning Life Sciences). After overnight incubation, medium was removed and 50 μL RPMI containing the treated compound, 1% FBS and a combination of cytokines (10 ng/mL IL-1β, 50 ng/mL IFN-γ, 25 ng/mL TNF-α) was added to every well. After incubation for 48 hr, medium was removed and 20 μL CellTiter-Glo reagent was added. Luminescence was measured after 10-min incubation using an EnVision plate reader (PerkinElmer).

[2] = system: INS-1E cells; test: Caspase-3 activity assay (Caspase-Glo 3/7) in cytokine-treated INS-1E cells; type: cell-based, rat; settings: cytokines, 48 h, Caspase-Glo 3/7
Protocol: INS-1E cells were seeded at 5,000 cells per well in white optical 384-well plates and treated as described for highthroughput screening. After treatment with cytokines and compounds for 48 h, medium was removed and 20 μL Caspase-Glo 3/7 reagent was added. Luminescence was measured after 2 h of incubation using an EnVision plate reader.

[3] = system: beta cells; settings: HDAC inhibition, presumably by decreasing NF-κB transactivation; cited from earlier work

| EC50 [2] [µM] | Compound | EC50 [1] [µM] | cytokine-induced beta-cell death [3] |
| --- | --- | --- | --- |
| > 25 | COc1ccc(S(=O)(=O)N(C)C[C@@H]2Oc3c(NC(=O)c4cccc5ccccc45)cccc3C(=O)N([C@@H](C)CO)C[C@H]2C)cc1 [Compound 35A] | > 25 | – |
| > 25 | C[C@@H]1CN([C@@H](C)CO)C(=O)c2cccc(NC(=O)Nc3cccc4ccccc34)c2O[C@H]1CN(C)S(=O)(=O)c1cn(C)cn1 [Compound 36A] | > 25 | – |
| > 25 | Cc1ccc(S(=O)(=O)N(C)C[C@@H]2Oc3c(NC(=O)Nc4ccc(F)cc4)cccc3C(=O)N([C@@H](C)CO)C[C@H]2C)cc1 [Compound 37A] | > 25 | – |
| > 25 | C[C@@H]1CN([C@@H](C)CO)C(=O)c2cccc(NC(=O)Nc3ccc(F)cc3)c2O[C@H]1CN(C)S(=O)(=O)c1ccc(F)cc1 [Compound 38A] | > 25 | – |
| > 25 | COc1ccc(S(=O)(=O)N(C)C[C@@H]2Oc3c(NC(=O)Nc4cccc(-c5ncccn5)c4)cccc3C(=O)N([C@@H](C)CO)C[C@H]2C)cc1 [Compound 39A] | > 25 | – |
| > 25 | COc1ccc(S(=O)(=O)N(C)C[C@@H]2Oc3c(NC(=O)Nc4cccc(-c5ccccc5)c4)cccc3C(=O)N([C@@H](C)CO)C[C@H]2C)cc1 [Compound 40A] | > 25 | – |
| > 25 | COc1ccc(S(=O)(=O)N(C)C[C@@H]2Oc3c(NC(=O)Nc4cc(F)ccc4F)cccc3C(=O)N([C@@H](C)CO)C[C@H]2C)cc1 [Compound 41A] | > 25 | – |
| > 25 | COc1ccc(S(=O)(=O)N(C)C[C@@H]2Oc3c(NC(=O)Nc4cccc(C(F)(F)F)c4)cccc3C(=O)N([C@@H](C)CO)C[C@H]2C)cc1 [Compound 42A] | > 25 | – |
| > 25 | COc1ccc(S(=O)(=O)N(C)C[C@@H]2Oc3c(NC(=O)Nc4cccc5c4CCCC5)cccc3C(=O)N([C@@H](C)CO)C[C@H]2C)cc1 [Compound 43A] | > 25 | – |
| > 25 | COc1ccc(S(=O)(=O)N(C)C[C@@H]2Oc3c(NC(=O)Nc4ccc5occc5c4)cccc3C(=O)N([C@@H](C)CO)C[C@H]2C)cc1 [Compound 44A] | > 25 | – |
| > 25 | COc1ccc(S(=O)(=O)N(C)C[C@@H]2Oc3c(NC(=O)Nc4cccc5c4CC(C)(C)O5)cccc3C(=O)N([C@@H](C)CO)C[C@H]2C)cc1 [Compound 46A] | > 25 | – |
| > 25 | COc1ccc(S(=O)(=O)N(C)C[C@@H]2Oc3c(NC(=O)Nc4ccc5c(c4)OCCO5)cccc3C(=O)N([C@@H](C)CO)C[C@H]2C)cc1 [Compound 47A] | > 25 | – |
| > 25 | COc1ccc(S(=O)(=O)N(C)C[C@@H]2Oc3c(NC(=O)Nc4cc(F)cc5c4OCOC5)cccc3C(=O)N([C@@H](C)CO)C[C@H]2C)cc1 [Compound 48A] | > 25 | – |
| – | O=C(CCCCCCC(=O)Nc1ccccc1)NO [SAHA, suberoylanilide hydroxamic acid] | – | can prevent cytokine-induced beta-cell death |
| – | CC(/C=C/C(=O)NO)=C\[C@@H](C)C(=O)c1ccc(N(C)C)cc1 [TSA, trichostatin A] | – | can prevent cytokine-induced beta-cell death |
